# Tests used:
# mock-infected MT4 cells = assay: in vitro
# Method: (§1) HIV- or mock-infected MT4 cells were incubated for five days in the presence of various concentrations of the inhibitor. […] Cell viability is measured by measuring the concentration of MTT, a yellow, water soluble tetrazolium dye that is converted to a purple, water insoluble formazan in the mitochondria of living cells only. Upon solubilization of the resulting formazan crystals with isopropanol, the absorbance of the solution is monitored at 540 nm. The values correlate directly to the number of living cells remaining in the culture at the completion of the five day incubation. The inhibitory activity of the compound was monitored on the virus-infected cells and was expressed as EC50 and EC90. These values represent the amount of the compound required to protect 50% and 90%, respectively, of the cells from the cytopathogenic effect of the virus. The toxicity of the compound was measured on the mock-infected cells and was expressed as CC50, which represents the concentration of compound required to inhibit the growth of the cells by 50%. The selectivity index (SI) (ratio CC50/EC50) is an indication of the selectivity of the anti-HIV activity of the inhibitor. Wherever results are reported as e.g. pEC50 or pCC50 values, the result is expressed as the negative logarithm of the result expressed as EC50 or CC50 respectively.
# (§2) As a measure of the broad spectrum activity of the present compounds, the fold resistance (FR), defined as FR=EC50(mutant strain)/EC50(HIV-1 strain LAI), was determined.
# [1] = system: HIV strain A (clinically isolated, protease mutations); assay type: cell-based; conditions: FR=EC50(mutant strain A)/EC50(HIV-1 strain LAI)
# Method: as §1, §2
# [2] = system: HIV strain B (clinically isolated, protease mutations); assay type: cell-based; conditions: FR=EC50(mutant strain B)/EC50(HIV-1 strain LAI)
# Method: as §1, §2
# [3] = system: HIV strain C (clinically isolated, protease mutations); assay type: cell-based; conditions: FR=EC50(mutant strain C)/EC50(HIV-1 strain LAI)
# Method: as §1, §2
# [4] = system: HIV strain D (clinically isolated, protease mutations); assay type: cell-based; conditions: FR=EC50(mutant strain D)/EC50(HIV-1 strain LAI)
# Method: as §1, §2
# [5] = system: HIV strain E (clinically isolated, protease mutations); assay type: cell-based; conditions: FR=EC50(mutant strain E)/EC50(HIV-1 strain LAI)
# Method: as §1, §2
# [6] = system: HIV strain F (clinically isolated, protease mutations); assay type: cell-based; conditions: FR=EC50(mutant strain F)/EC50(HIV-1 strain LAI)
# Method: as §1, §2
# HIV-1 LAI = assay: Protein binding analyses: anti-HIV activity in presence of serum proteins; assay type: cell-based; conditions: MT4 cells
# Method: Human serum proteins like albumin (HSA) or α-1 acid glycoprotein (AAG) are known to bind many drugs, resulting in a possible decrease in the effectiveness of those compounds. In order to determine whether the present compounds would be adversely affected by this binding, the anti-HIV activity of the compounds was measured in the presence of human serum, thus evaluating the effect of the binding of the protease inhibitors to those proteins.
# MT4 cells are infected with HIV-1 LAI at a multiplicity of infection (MOI) of 0.001-0.01 CCID50 (50% cell culture infective dose per cell, CCID50). After 1 h incubation, cells are washed and plated into a 96 well plate containing serial dilutions of the compound in the presence of 10% FCS (foetal calf serum), 10% FCS+1 mg/ml AAG (α1-acid glycoprotein), 10% FCS+45 mg/ml HSA (human serum albumin) or 50% human serum (HS). After 5 or 6 days incubation, the EC50 (50% effective concentration in cell-based assays) is calculated by determining the cell viability or by quantifying the level of HIV replication. Cell viability is measured using the assay described above. Into a 96 well plate containing serial dilutions of the compound in the presence of 10% FCS or 10% FCS+1 mg/ml AAG, HIV (wild type or resistant strain) and MT4 cells are added to a final concentration of 200-250 CCID50/well and 30,000 cells/well, respectively. After 5 days of incubation (37° C., 5% CO2), the viability of the cells is determined by the tetrazolium colorimetric MTT (3-[4,5-Dimethylthiazol-2-yl]-2,5-diphenyltetrazolium bromide) method (Pauwels et al. J Virol. Methods 1988, 20, 309-321).
# [7] = in vivo, ip, 20 mg/kg
# Method: The compounds are formulated as a 20 mg/ml solution or suspension in DMSO, PEG400 or cyclodextin 40% in water. For most experiments in the rat (male and female rats), three dosing groups are formed: 1/single intraperitoneal (IP) dose at 20 mg/kg using the DMSO formulation; 2/single oral dose at 20 mg/kg using the PEG400 formulation and 3/single oral dose at 20 mg/kg using the cyclodextrin formulation. Blood is sampled at regular time intervals after dosing and drug concentrations in the serum are determined using a LC-MS bioanalytical method. Serum concentrations are expressed in […] after normalization to 10 mg/kg. Serum concentration at 30 minutes (30′) and at 3 hours (180′) can be determined as these values reflect the extent of absorption (30′) and the speed of elimination (180′). The rat serum concentration at 30 min and 180 min following IP administration of 20 mg/kg of compound 4 are 1098 ng/ml and 553 ng/ml respectively.
# in vitro = conditions: human
# Method: as §1, §2
Structure (SMILES),Tox (pCC50) (mock-infected MT4 cells),A (FR) fold resistance [1],B (FR) fold resistance [2],C (FR) fold resistance [3],D (FR) fold resistance [4],E (FR) fold resistance [5],F (FR) fold resistance [6],Ratio of the EC50 compared to FCS (10%) (HIV-1 LAI; AAG 1 mg/ml (10% FCS+AAG)),Ratio of the EC50 compared to FCS (10%) (HIV-1 LAI; FCS (10%)),Ratio of the EC50 compared to FCS (10%) (HIV-1 LAI; HS 50% (human serum)),Ratio of the EC50 compared to FCS (10%) (HIV-1 LAI; HSA 45 mg/ml (10% FCS+HSA)),rat serum concentration at 30 min [7] [ng/mL],rat serum concentration at 180 min [7] [ng/mL],CC50 at 5 days (in vitro) [µM]
CC(=O)Nc1nc2ccc(S(=O)(=O)N(CC(C)C)C[C@@H](O)[C@H](Cc3ccccc3)NC(=O)O[C@H]3CO[C@H]4OCC[C@H]43)cc2o1 [Compound 1],<4,0.63,0.80,0.50,0.72,0.40,0.71,25,1,15,6,,,
CC(C)CN(C[C@@H](O)[C@H](Cc1ccccc1)NC(=O)O[C@H]1CO[C@H]2OCC[C@H]21)S(=O)(=O)c1ccc2nc(NCCN3CCCC3)oc2c1 [Compound 4],,1.95,1.62,1.70,0.47,0.50,3.2,,,,,1098,553,
CC(C)CN(C[C@@H](O)[C@H](Cc1ccccc1)NC(=O)OCc1cncs1)S(=O)(=O)c1ccc2nc(NC(=O)c3ccncc3)oc2c1 [Compound 10],,3.9,10.83,1.1,3.9,1.3,20,,,,,,,53.7
